The nature of one series: in vivo. The note with it: rat, male rats (dd strain), fasted 12 hours.
In the next series the test system is β-adreno-receptor. Briefly: Inhibition of histamine-induced bronchoconstriction (bronchial resistance, Konzett-Rossler method) in anesthetized dogs; β-adreno-receptor stimulating activity. The following applies: femoral vein, 1 minute before histamine 10 mg/kg. Type of series: in vivo, dog (male hybrid adult dogs). The protocol: The stimulating activity of the compounds of this invention on β-adreno-receptor was determined as follows:
Male hybrid adult dogs, weighing 10 to 15 kg were anesthesized with 30 mg/kg of body weight of sodium pentobarbital administered intravenously. Each of the anesthesized dogs were secured on its back and a cannula was inserted into the trachea. Artificial respiration was conducted using a device according to the Konzett-Rossler method (Konzett H. & Rossler R., "Versuchsanordnug zu Untersuchungen an der Bronchial Moskolatur", Arch. Exp. Path., Pharmack, 195, 71 - 74, 27 - 40 (1940)). The volume of the overflowing air at the time of inhalation was measured through a pneumotachometer to determine the bronchial resistance and the values obtained were recorded on a polygraph.
In the above experiment, histamine was employed as a bronchoconstrictor at a dosage level of 10 mg/kg of body weight, and an aqueous solution containing each of the test compounds and controls shown in Table 1 below was then administered to each of the anesthesized dogs through the femoral vein at various dosage levels shown in Table 1 below 1 minute before the administration of the histamine. Sodium pentobarbital was infused during the experiment at a dosage level of 4 mg/kg of body weight/hr using an automatic injector in order to inhibit spontaneous respiration and to keep the anesthetic condition constant over the test period.

Structures can show the parent of a compound that is named as a salt.

Results on 5 molecules are retold here after patent US3994901A, “5-[1-Hydroxy-2-(s ubstituted-amino)]alkyl-8-hydroxy-3,4-dihydrocarbostyril derivatives” (Otsuka Pharmaceutical Company Limited, priority 1974, dated 1976).

The term LD50 denotes the dose expected to kill half of the subjects tested.

Regarding `CCC(NC(C)C)C(O)c1ccc(O)c2c1CCC(=O)N2` (stereo not drawn) [5-(1-Hydroxy-2-isopropylamino)butyl-8-hydroxy-3,4-dihydrocarbostyril], the LD50 in the series “in vivo” (iv, I.v.) worked out at 81.5 mg/kg; in “in vivo” (po), 830 mg/kg.
`CC(C)NCC(O)c1ccc(O)c(O)c1` (stereo not drawn) [Isoproterenol]: the entries for the “Bronchial Resistance (%)” value with β-adreno-receptor (dose 0.03 ug/Kg) and with β-adreno-receptor (dose 1.0 ug/Kg) were 16.6% and 100%, respectively.
Consider `CC(C)NCC(O)c1cc(O)cc(O)c1` (stereo not drawn) [Metaproterenol Sulfate (Arotec)], for which the “Bronchial Resistance (%)” value in the series with β-adreno-receptor (dose 0.01 ug/Kg) is listed as 0%; in the series with β-adreno-receptor (dose 0.03 ug/Kg), 0%; in the series on β-adreno-receptor (dose 0.1 ug/Kg) it was 2.7%; in the series with β-adreno-receptor (dose 0.3 ug/Kg) it was 11.1%; with β-adreno-receptor (dose 1.0 ug/Kg), 27.5%; in the series with β-adreno-receptor (dose 3.0 ug/Kg) it was 50.0%. Besides, the “Bronchial Resistance (%)” value is reported as 88.3% in the series on β-adreno-receptor (dose 10 ug/Kg) and 100% in the series on β-adreno-receptor (dose 30 ug/Kg).
Turning to `CC(C)NCC(O)c1ccc(O)c2ncccc12` (stereo not drawn) [Quinterenol], the “Bronchial Resistance (%)” value in the series on β-adreno-receptor (dose 0.01 ug/Kg), in the series on β-adreno-receptor (dose 0.03 ug/Kg), in the series on β-adreno-receptor (dose 0.1 ug/Kg), in the series with β-adreno-receptor (dose 0.3 ug/Kg), with β-adreno-receptor (dose 1.0 ug/Kg) and in the series on β-adreno-receptor (dose 3.0 ug/Kg) was 0% throughout. Further, the “Bronchial Resistance (%)” value with β-adreno-receptor (dose 10 ug/Kg) is 0%; with β-adreno-receptor (dose 30 ug/Kg), 7.6%; in the series with β-adreno-receptor (dose 100 ug/Kg) it was 15.3%.
Turning to `CC(C)(C)NCC(O)c1ccc(O)c(CO)c1` (stereo not drawn) [Salbutamol], the “Bronchial Resistance (%)” value was determined as 0% in the series with β-adreno-receptor (dose 0.01 ug/Kg); 0% in the series on β-adreno-receptor (dose 0.03 ug/Kg); 16.6% in the series on β-adreno-receptor (dose 0.1 ug/Kg); 33.3% in the series on β-adreno-receptor (dose 0.3 ug/Kg); 66.6% in the series on β-adreno-receptor (dose 1.0 ug/Kg); 100% in the series with β-adreno-receptor (dose 3.0 ug/Kg).
